Data as given in PubChem BioAssay (NCI).
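Tested at 5 concentrations; 48 h exposure; 96-well plates; endpoints linearly interpolated, else capped at highest concentration. At the TGI there is no net growth.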

What was measured:
Experiment in all cases: NCI tumour cell line growth inhibition, 48 h
[1] = system: A498 renal
[2] = system: A549 NSCLC
[3] = system: CAKI-1 renal
[4] = system: CCRF-CEM leukemia
[5] = system: COLO 205 colon
[6] = system: DLD-1 colon
[7] = system: DMS 114 small cell lung
[8] = system: DMS 273 small cell lung
[9] = system: EKVX NSCLC
[10] = system: HCC-2998 colon
[11] = system: HCT-116 colon
[12] = system: HCT-15 colon
[13] = system: HL-60(TB) leukemia
[14] = system: HOP-18 NSCLC
[15] = system: HOP-62 NSCLC
[16] = system: HOP-92 NSCLC
[17] = system: HT29 colon
[18] = system: IGROV1 ovarian
[19] = system: K-562 leukemia
[20] = system: KM12 colon
[21] = system: KM20L2 colon
[22] = system: LOX IMVI melanoma
[23] = system: M19-MEL melanoma
[24] = system: MALME-3M melanoma
[25] = system: MCF7 breast
[26] = system: MOLT-4 leukemia
[27] = system: NCI-H226 lung
[28] = system: NCI-H23 lung
[29] = system: NCI-H460 lung
[30] = system: NCI-H522 lung
[31] = system: NCI/ADR-RES ovarian
[32] = system: OVCAR-3 ovarian
[33] = system: OVCAR-4 ovarian
[34] = system: OVCAR-5 ovarian
[35] = system: OVCAR-8 ovarian
[36] = system: P388 leukemia
[37] = system: P388/ADR leukemia
[38] = system: RPMI-8226 leukemia
[39] = system: RXF 393 renal
[40] = system: SF-268 CNS
[41] = system: SF-295 CNS
[42] = system: SF-539 CNS
[43] = system: SK-MEL-2 melanoma
[44] = system: SK-MEL-28 melanoma
[45] = system: SK-MEL-5 melanoma
[46] = system: SK-OV-3 ovarian
[47] = system: SN12C renal
[48] = system: SN12K1 renal
[49] = system: SNB-19 CNS
[50] = system: SNB-75 CNS
[51] = system: SNB-78 CNS
[52] = system: SW-620 colon
[53] = system: U251 CNS
[54] = system: UACC-257 melanoma
[55] = system: UACC-62 melanoma
[56] = system: UO-31 renal
[57] = system: XF 498 CNS

`Oc1c(CNCCCN2CCCC2)cc(Cl)c2cccnc12` was tested, and the TGI [1] was 29.9 µM, the TGI [2] was 11.3 µM and the TGI [3] was 12.5 µM. It also gave a TGI [4] of 13.6 µM, a TGI [5] of 15.2 µM and a TGI [6] of 15 µM. The TGI [7] was 9.24 µM, the TGI [8] was 10.4 µM and the TGI [9] was 12.4 µM. The TGI [10] was 10.2 µM, the TGI [11] was 12.8 µM and the TGI [12] was 16.2 µM. For the same compound, the TGI [13] was 5.91 µM, the TGI [14] was 20.6 µM and the TGI [15] was 7.24 µM. The TGI [16] was 33.7 µM, the TGI [17] was 17.3 µM and the TGI [18] was 20.7 µM. For the same compound, the TGI [19] was 7.38 µM, the TGI [20] was 28.8 µM and the TGI [21] was 14.4 µM. The TGI [22] was 15.3 µM, the TGI [23] was 9.61 µM and the TGI [24] was 17.4 µM. It also gave a TGI [25] of 15.9 µM, a TGI [26] of 11.7 µM and a TGI [27] of 19.2 µM. For the same compound, the TGI [28] was 23.9 µM, the TGI [29] was 10.6 µM and the TGI [30] was 12.4 µM. For the same compound, the TGI [31] was 7.68 µM, the TGI [32] was 11.9 µM and the TGI [33] was 16.9 µM. It also gave a TGI [34] of 8.37 µM, a TGI [35] of 15.7 µM and a TGI [36] of 9.18 µM. For the same compound, the TGI [37] was 6.32 µM, the TGI [38] was 16.3 µM and the TGI [39] was 25.2 µM. For the same compound, the TGI [40] was 18.4 µM, the TGI [41] was 5.49 µM and the TGI [42] was 10.1 µM. For the same compound, the TGI [43] was 26.2 µM, the TGI [44] was 23.6 µM and the TGI [45] was 5.77 µM. It also gave a TGI [46] of 15 µM, a TGI [47] of 24.6 µM and a TGI [48] of 4.1 µM. It also gave a TGI [49] of over 100 µM, a TGI [50] of 36.3 µM and a TGI [51] of 33.5 µM. It also gave a TGI [52] of 17.1 µM, a TGI [53] of 17 µM and a TGI [54] of 24.2 µM. It also gave a TGI [55] of 5.79 µM, a TGI [56] of 21.3 µM and a TGI [57] of 15.2 µM.
